Data: patent publication US8367060B2, “Pharmaceutical composition containing arazyme for the prevention of liver dysfunction” (Insect Biotech Co., Ltd., priority 2006, dated 2013)
“Also recorded” adds a separate entry of the source.

Legend:
SMP30 [1] = assay: Immunohistochemical observation of SMP30 in liver cells; assay type: in vivo; details: wild type mice, 100 mg/kg oral before CCl4, compared with CCl4 alone
Experimental: (§1) Wild type mice and SMP30 knock-out mice were divided, by 5 of each, into negative control groups (G1, G5), positive control groups (G2, G6), two of experimental group 1 (G3, G7) and two of experimental group 2 (G4, G8) (Table 1). Intraperitoneal administration of olive oil was performed once to negative control mice (G1, G5), while intraperitoneal administration of CCl4 (0.4 ml/kg) was performed once to positive control mice (G2, G6). In the meantime, 100 mg/kg of vitamin C dissolved in tap water was orally administered to experimental group 1 mice (G3, G7) one day before the intraperitoneal administration of CCl4 (0.4 ml/kg). 100 mg/kg of arazyme dissolved in tap water was orally administered to experimental group 2 mice (G4, G8) one day before the intraperitoneal administration of CCl4 (0.4 ml/kg). 24 hours after the administration of CCl4, autopsy was performed in every mouse and samples were taken from each mouse for histopathological test.
To observe SMP30 in liver cells immunohistochemically, paraffin embedded tissues fixed with formalin were cut into 4 μm thick sections, followed by deparaffinization. To inhibit the activity of endogenous peroxidase, the sections were treated in 3% H2O2 for 30 minutes and washed with 0.01 M PBS. To increase antigen expression of the tissues, the sections were treated with 0.01 M citrate buffer, followed by heat treatment using microwave. […]

P-smad3 [2] = assay: Immunohistochemical observation of P-smad3 expression in liver cells; assay type: in vivo, mice; details: 100 mg/kg oral before CCl4
liver cells = assay: Histopathological observation on liver cells (H&E) in CCl4-induced acute liver injury; assay type: in vivo, mice; details: for necrosis in liver cells: 100 mg/kg oral one day before CCl4 0.4 ml/kg i.p., autopsy 24 hours after CCl4
Excerpt: In the present invention, male wild type C57BL/6(WT) at 12 weeks and SMP30 knock-out C57BL/6(KO) mice were used to induce liver injury by CCl4 and then the relation of SMP30 with arazyme was investigated. 10 male and 20 female SMP30 knock-out C57BL/6 mice were distributed from Tokyo Metropolitan Institute of Gerontology, which were then raised in the animal laboratory at Department of Pathology, College of Veterinary Medicine, Kyungpook National University, Korea. Among F1 mice generated by breeding, knock-out mice were selected by tail DNA genotyping by PCR.
Wild type mice were quarantined and adapted for 7 days in the animal laboratory. During the adaptation, every symptom was checked and only healthy animals were selected. Both wild type and SMP30 knock-out mice were 12 weeks old, excluding the difference in age.
Rats were adapted and raised in an animal facility where temperature was regulated to 22±3° C., humidity was adjusted to 55±10% and light was also regulated to 12L/12D (08:00 lights on, 20:00 lights out). The environmental conditions were checked regularly (every three months). After environmental evaluation, no changes in important conditions were recognized. During the whole experiment period, rats were raised in polycarbonate cages [240 W×390 L×175 H (mm)] by up to 5 per cage. Skin mark using an oil magic pen and individual identification card were used for distinguishment. Feed for laboratory animals (PMI Nutrition International, 505 North 4th Street Richmond, in 47374, USA) was provided at any time after being sterilized by irradiation (13.2 kGy). Tap water was provided using a water bottle at any time after being purified by a carbon filter. Carbon tetrachloride was diluted in olive oil at the concentration of 0.4 ml/kg and administered to […] once to induce liver injury. 24 hours after the administration, autopsy was performed.
Wild type mice and SMP30 knock-out mice were divided, by 5 of each, into negative control groups (G1, G5), positive control groups (G2, G6), two of experimental group 1 (G3, G7) and two of experimental group 2 (G4, G8) (Table 1). […]

P-smad3 [3] = assay: Expression of P-smad3 in liver cells by immunoblotting; assay type: in vivo; details: SMP30 knock-out mice; compared with CCl4 alone (G6)
Experimental: as §1
(§2) The expression of SMP30 in liver cells was investigated by immunoblotting. First, the liver tissues frozen at −70° C. were homogenized in RIPA buffer containing 0.1 mM sodium orthovandate (Na3VO4) and protease inhibitor cocktail tablet (Roche, Mannheim, Germany). […] Protein concentration was measured by Bradford method and each protein sample proceeded onto 10% SDS-polyacrylamide gel at the concentration of 80 µg/well, followed by electrophoresis. […]

SMP30 [4] = assay: Expression of SMP30 in liver cells by immunoblotting; assay type: in vivo; details: wild type mice; 100 mg/kg oral before CCl4; compared with CCl4 only (G2)
Experimental: as §1, §2

For `O=C1O[C@H]([C@@H](O)CO)C(O)=C1O` [vitamin C, L-ascorbic acid, reference compound], the “SMP30 expression (immunohistochemistry)” value (SMP30 [1]) was “higher; also recorded: more strongly expressed”, the “P-smad3 immune response (immunohistochemistry)” value (P-smad3 [2]; SMP30 knock-out mice, G6, G7 compared with G8) was “strongly detected” and the “P-smad3 immune response (immunohistochemistry)” value (P-smad3 [2]; wild type mice, compared with CCl4 only (G2), 100 mg/kg) was “strong immune response against P-smad3 was detected in group 2 (G2) treated with CCl4 only, compared with the groups (G3, G4) treated with vitamin C and arazyme; also recorded: strongly observed in CCl4 treated group (G2), compared with the groups treated with vitamin C and arazyme (G3, G4)”. For the same compound, the “necrosis in liver cells” value (liver cells; SMP30 knock-out C57BL/6 mice) was “significantly inhibited”, the “necrosis in liver cells” value (liver cells; wild type C57BL/6 mice) was “significantly inhibited” and the “apoptosis of liver cells, histological observation” value (liver cells; wild type and SMP30 knock-out mice with acute liver injury) was “inhibition of apoptosis of liver cells was observed”. For the same compound, the “P-smad3 expression (immunoblotting)” value (P-smad3 [3]) was “inhibited” and the “SMP30 expression (immunoblotting)” value (SMP30 [4]) was “high”.
